Each structure is given as a SMILES string. The source made the active and inactive calls. The calls are words filed in the database; no cut-off is given here.

For one data set, the system named is L02. The experiment in a line: Cytotoxicity against human HL7702 cells assessed as inhibition of cell growth incubated for 72 hrs by CCK8 assay. In kind it is toxicity, cell-based. The following applies: l02, 72 h. Background: Formazan colour is commonly taken as a measure of viable cells.
Data set [1] relates to MDA-MB-231. Description: Induction of cell cycle arrest in human MDA-MB-231 cells assessed as accumulation of cells at G0/G1 phase at 0.625 uM incubated for 24 hrs by PI/RNase staining based flow cytometric analysis relative to control. The class given is functional. In general terms: Flow cytometry measures light scatter and fluorescence of single cells or particles in a stream.

The target in data set [2] is T1, Double-stranded RNA-specific adenosine deaminase (Homo sapiens) (UniProt P55265).
T1 sequence (whole entry): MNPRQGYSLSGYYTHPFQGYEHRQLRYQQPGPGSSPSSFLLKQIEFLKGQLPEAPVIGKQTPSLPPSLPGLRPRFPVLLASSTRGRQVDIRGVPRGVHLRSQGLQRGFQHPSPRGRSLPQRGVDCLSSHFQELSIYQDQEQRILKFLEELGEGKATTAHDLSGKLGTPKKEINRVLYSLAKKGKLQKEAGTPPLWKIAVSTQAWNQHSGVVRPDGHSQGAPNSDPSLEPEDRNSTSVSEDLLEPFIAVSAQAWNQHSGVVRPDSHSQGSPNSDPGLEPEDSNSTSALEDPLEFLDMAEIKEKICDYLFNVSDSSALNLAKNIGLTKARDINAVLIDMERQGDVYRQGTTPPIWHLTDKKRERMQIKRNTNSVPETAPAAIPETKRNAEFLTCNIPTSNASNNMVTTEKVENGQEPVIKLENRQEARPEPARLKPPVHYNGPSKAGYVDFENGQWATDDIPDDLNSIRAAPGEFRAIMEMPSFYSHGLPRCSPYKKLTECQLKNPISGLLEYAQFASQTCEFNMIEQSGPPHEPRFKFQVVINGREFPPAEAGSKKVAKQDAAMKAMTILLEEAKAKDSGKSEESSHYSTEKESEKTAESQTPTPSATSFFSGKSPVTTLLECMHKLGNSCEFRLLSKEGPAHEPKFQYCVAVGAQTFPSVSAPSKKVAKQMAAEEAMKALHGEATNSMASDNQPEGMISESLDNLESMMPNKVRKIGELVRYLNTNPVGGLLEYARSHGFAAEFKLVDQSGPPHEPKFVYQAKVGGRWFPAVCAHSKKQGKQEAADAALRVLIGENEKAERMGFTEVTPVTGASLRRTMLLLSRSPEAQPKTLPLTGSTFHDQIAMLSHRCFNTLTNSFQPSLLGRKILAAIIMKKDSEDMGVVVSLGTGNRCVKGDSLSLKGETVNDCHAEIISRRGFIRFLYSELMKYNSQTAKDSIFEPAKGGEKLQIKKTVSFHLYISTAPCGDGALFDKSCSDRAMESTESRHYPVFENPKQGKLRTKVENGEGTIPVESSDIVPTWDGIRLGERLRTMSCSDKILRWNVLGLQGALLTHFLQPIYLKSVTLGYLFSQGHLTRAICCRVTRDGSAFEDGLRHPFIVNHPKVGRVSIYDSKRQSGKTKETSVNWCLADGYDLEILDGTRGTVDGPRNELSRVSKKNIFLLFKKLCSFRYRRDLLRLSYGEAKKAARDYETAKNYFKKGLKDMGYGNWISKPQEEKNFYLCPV
The experiment in a line: Binding affinity to ADAR in human MDA-MB-231 cells at 20 uM incubated for 2 to 5 hrs by pull down based LC-MS analysis. In kind it is cell-based. The following applies: time 2-5 hrs.

The next data set deals with Albumin (Homo sapiens, UniProt P02768). The experiment in a line: Binding affinity to N-terminal 6his/SUMO-tagged human serum albumin expressed in Escherichia coli BL21 (DE3) cells incubated for 2 to 7 hrs by fluorescence based SDS-PAGE analysis. The following applies: time 2-7 hrs.
Sequence of Albumin (P02768 whole entry): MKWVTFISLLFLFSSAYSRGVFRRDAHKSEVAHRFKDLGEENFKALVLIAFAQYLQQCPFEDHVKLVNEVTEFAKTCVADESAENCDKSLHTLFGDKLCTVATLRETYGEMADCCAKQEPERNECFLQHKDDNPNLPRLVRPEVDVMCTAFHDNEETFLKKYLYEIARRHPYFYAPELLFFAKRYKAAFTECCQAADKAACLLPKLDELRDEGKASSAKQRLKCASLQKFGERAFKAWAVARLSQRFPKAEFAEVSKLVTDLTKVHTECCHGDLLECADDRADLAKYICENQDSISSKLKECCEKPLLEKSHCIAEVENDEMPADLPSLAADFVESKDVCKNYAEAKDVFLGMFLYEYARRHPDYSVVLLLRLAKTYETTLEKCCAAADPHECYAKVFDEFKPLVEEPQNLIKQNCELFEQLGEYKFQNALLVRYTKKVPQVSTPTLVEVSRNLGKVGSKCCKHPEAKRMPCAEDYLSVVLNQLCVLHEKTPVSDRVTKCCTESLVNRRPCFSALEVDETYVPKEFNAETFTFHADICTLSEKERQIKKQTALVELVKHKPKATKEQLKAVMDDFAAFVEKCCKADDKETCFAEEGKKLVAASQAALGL
Data set [3] addresses T2, Peptidyl-prolyl cis-trans isomerase FKBP4 (Homo sapiens) (UniProt Q02790).
T2 sequence (whole entry): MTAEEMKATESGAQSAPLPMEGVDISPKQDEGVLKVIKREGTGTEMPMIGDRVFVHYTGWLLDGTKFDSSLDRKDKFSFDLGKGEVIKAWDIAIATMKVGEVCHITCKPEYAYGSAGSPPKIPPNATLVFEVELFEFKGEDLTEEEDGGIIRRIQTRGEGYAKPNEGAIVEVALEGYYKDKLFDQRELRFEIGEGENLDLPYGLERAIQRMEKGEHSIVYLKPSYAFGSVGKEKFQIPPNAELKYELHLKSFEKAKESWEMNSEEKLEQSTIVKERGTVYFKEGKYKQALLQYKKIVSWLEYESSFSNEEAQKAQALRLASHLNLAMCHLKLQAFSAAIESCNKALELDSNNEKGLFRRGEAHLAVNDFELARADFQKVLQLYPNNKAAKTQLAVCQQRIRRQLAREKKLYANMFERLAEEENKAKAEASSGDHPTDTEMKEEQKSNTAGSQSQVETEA
The experiment in a line: Binding affinity to recombinant FKBP4 (unknown origin) at 10 uM by Western blot analysis. On the technique in general: A western blot detects proteins with antibodies after separation by electrophoresis.

Data set [4] has as its target T3, Aldehyde dehydrogenase, mitochondrial (Homo sapiens) (UniProt P05091).
T3 sequence (whole entry): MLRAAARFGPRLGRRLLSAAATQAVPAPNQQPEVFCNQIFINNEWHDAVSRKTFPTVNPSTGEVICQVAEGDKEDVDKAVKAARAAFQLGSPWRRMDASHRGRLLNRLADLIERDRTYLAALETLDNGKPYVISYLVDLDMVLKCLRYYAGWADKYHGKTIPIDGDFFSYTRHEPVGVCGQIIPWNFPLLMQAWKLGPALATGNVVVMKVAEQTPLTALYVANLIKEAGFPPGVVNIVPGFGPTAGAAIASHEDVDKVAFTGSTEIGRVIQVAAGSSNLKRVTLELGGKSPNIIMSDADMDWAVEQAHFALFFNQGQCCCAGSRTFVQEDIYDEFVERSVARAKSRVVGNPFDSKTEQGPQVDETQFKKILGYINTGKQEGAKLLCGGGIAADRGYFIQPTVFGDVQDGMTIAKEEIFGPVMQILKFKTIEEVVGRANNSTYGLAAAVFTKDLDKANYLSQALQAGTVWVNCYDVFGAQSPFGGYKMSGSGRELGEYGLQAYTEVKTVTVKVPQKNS
Description: Binding affinity to ALDH2 in human MDA-MB-231 cells at 20 uM incubated for 2 to 5 hrs by pull down based LC-MS analysis. In kind it is cell-based. Particulars: time 2-5 hrs.

The test system of data set [5] is MDA-MB-231. Description: Induction of cell cycle arrest in human MDA-MB-231 cells assessed as accumulation of cells at G0/G1 phase at 0.156 uM incubated for 24 hrs by PI/RNase staining based flow cytometric analysis relative to control. In kind it is functional.
Data set [6] is described as follows: Drug uptake in human MDA-MB-231 cells at 10 uM incubated for 5 hrs by imaging based microscopic analysis. In kind it is ADME, cell-based. Particulars: mda-mb-231, 5 h.
The test system of data set [7] is MDA-MB-231. Description: Induction of apoptosis in human MDA-MB-231 cells transfected with FABP5 siRNA assessed as late apoptotic cells at 5 uM incubated for 48 hrs by Annexin V-FITC/PI staining based analysis (reference value: 8.47%). The class given is functional.
In a further data set the test system is HEK-293T. Description: Cytotoxicity against HEK293T cells assessed as inhibition of cell growth incubated for 72 hrs by CCK8 assay. The class given is toxicity, cell-based. The following applies: human.

Turning to `C#CCOc1ccc(-c2cc2=O)cc1`, the Activity result is recorded as “Non-Toxic” with L02; 71.89% with MDA-MB-231 [1]; “Active” at Albumin; 57.98% in the data set on MDA-MB-231 [5]; 32.83% with MDA-MB-231 [7]; “Non-Toxic” with HEK-293T. Also, the outcome in [2], in data set [3] and in data set [4] was Active. Further, the Drug uptake entry in data set [6] was “Active”.

The record behind these values is ChEMBL document CHEMBL5380806, “Cyclopropenone, Cyclopropeniminium Ion, and Cyclopropenethione as Novel Electrophilic Warheads for Potential Target Discovery of Triple-Negative Breast Cancer” (J Med Chem, 2023).
